# From patent publication US20040209897A1 (Pharmacia Corporation, priority 2002, published 2004)
# pIC50: −log10 of the molar value. Where a name gives a salt, the structure may show the parent alone.
# Biological target: Recombinant MAPKAPK2 (MK-2) (Homo sapiens, UniProt P49137)
# Assay: Determination of MK-2 IC50 (HSP-peptide phosphorylation, anion exchange resin capture assay)
# Type: biochemical
# Details: for pIC50: MAPKAP2 Avg. IC50
# Method: The phosphorylation of HSP-peptide ([sequence]) by MAPKAPK2 was measured using an anion exchange resin capture assay method. […] The reaction was terminated and [γ^33P]ATP was removed from solution by the addition of 150 μl of AG 1×8 ion exchange resin in 900 mM sodium formate pH 3.0. A 50 μl aliquot of head volume was removed from the quenched reaction mixture and added to a 96-well plate, 150 μl of Microscint-40 (Packard) was added and the amount of phosphorylated-peptide was determined.
# Compounds are evaluated as potential inhibitors of the MK2 kinase by measuring their effects on MK2 phosphorylation of the peptide substrate. Compounds may be screened initially at two concentrations prior to determination of IC50 values. Screening results are expressed as percent inhibition at the concentrations of compound tested. For IC50 value determinations, compounds are tested at six concentrations in ten-fold serial dilutions with each concentration tested in triplicate. Results are expressed as IC50 values in micromolar. The assay is performed at a final concentration of 2% DMSO.
# Sequence of Recombinant MAPKAPK2 (MK-2) (P49137 whole entry, species assumed): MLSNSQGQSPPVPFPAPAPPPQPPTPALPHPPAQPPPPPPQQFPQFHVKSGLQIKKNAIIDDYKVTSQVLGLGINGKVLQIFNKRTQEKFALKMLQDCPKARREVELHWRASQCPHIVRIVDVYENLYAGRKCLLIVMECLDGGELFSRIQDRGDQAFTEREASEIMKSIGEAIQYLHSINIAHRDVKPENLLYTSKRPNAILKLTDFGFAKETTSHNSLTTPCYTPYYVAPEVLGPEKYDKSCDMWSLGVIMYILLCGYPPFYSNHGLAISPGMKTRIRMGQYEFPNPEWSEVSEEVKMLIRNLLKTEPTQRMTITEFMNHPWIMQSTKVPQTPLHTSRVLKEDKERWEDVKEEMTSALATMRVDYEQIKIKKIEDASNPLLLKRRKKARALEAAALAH
Structure (SMILES),pIC50,kind of MK-2 inhibition (irreversible)
"O=C1NCCc2[nH]c(-c3ccnc(/C=C/c4cc(F)ccc4F)c3)cc21 [Example 196, trifluoroacetate]",7.47,–
"COC(=O)Nc1ccc(-c2cc(-c3cc4c([nH]3)CCNC4=O)ccn2)cc1 [Example 203, trifluoroacetate]",7.45,–
"O=Cc1cccc(-c2cc(-c3cc4c([nH]3)CCNC4=O)ccn2)c1 [Example 204, trifluoroacetate]",7.45,–
"N#Cc1ccccc1/C=C/c1cc(-c2cc3c([nH]2)CCNC3=O)ccn1 [Example 225, trifluoroacetate]",7.41,–
"CC(C)Cc1cncc(-c2cc(-c3cc4c([nH]3)CCNC4=O)ccn2)c1 [Example 243, trifluoroacetate]",7.38,–
"O=C(CBr)Nc1cccc(-c2cc(-c3cc4c([nH]3)CCNC4=O)ccn2)c1 [Example 271, trifluoroacetate]",–,irreversible inhibitors
"CCc1cccc(-c2cc(-c3cc4c([nH]3)CCNC4=O)ccn2)c1 [Example 272, trifluoroacetate]",7.31,–
"COc1ccc2cc(-c3cc(-c4cc5c([nH]4)CCNC5=O)ccn3)ccc2c1 [Example 273, trifluoroacetate]",7.30,–
"O=C1NCCc2[nH]c(-c3ccnc(/C=C/c4c[nH]c5ccccc45)c3)cc21 [Example 276, trifluoroacetate]",7.30,–
"CC(=O)OCC(=O)Nc1cccc(-c2cc(-c3cc4c([nH]3)CCNC4=O)ccn2)c1 [Example 279, trifluoroacetate]",7.29,–
"CC(=O)c1ccc(-c2cc(-c3cc4c([nH]3)CCNC4=O)ccn2)cc1 [Example 280, trifluoroacetate]",7.29,–
"C=C(C)C(=O)Nc1cccc(-c2cc(-c3cc4c([nH]3)CCNC4=O)ccn2)c1 [Example 287, trifluoroacetate]",7.28,–
"CC1Cc2[nH]c(-c3ccnc(-c4ccc(N(C)C)nc4)c3)cc2C(=O)N1 (stereo not shown) [Example 295, trifluoroacetate]",7.27,–
"CN(C)C(=O)CCCOc1ccc(-c2cc(-c3cc4c([nH]3)CCNC4=O)ccn2)cc1 [Example 326, trifluoroacetate]",7.21,–
"N#Cc1ccc(-c2cc(-c3cc4c([nH]3)CCNC4=O)ccn2)cc1 [Example 327, trifluoroacetate]",7.21,–
"O=C(O)c1cccc(-c2cccc(-c3cc(-c4cc5c([nH]4)CCNC5=O)ccn3)c2)c1 [Example 333, trifluoroacetate]",7.19,–
"O=C(/C=C/c1ccccc1)Nc1cc(-c2cc3c([nH]2)CCNC3=O)ccn1 [Example 334, trifluoroacetate]",7.19,–
"O=C(CCCl)Nc1cccc(-c2cc(-c3cc4c([nH]3)CCNC4=O)ccn2)c1 [Example 336, trifluoroacetate]",7.19,–
"CN(C)C/C=C/C(=O)Nc1cccc(-c2cc(-c3cc4c([nH]3)CCNC4=O)ccn2)c1 [Example 338, trifluoroacetate]",7.19,–
"O=C(CCl)NCc1cccc(-c2cc(-c3cc4c([nH]3)CCNC4=O)ccn2)c1 [Example 344, trifluoroacetate]",7.18,–
"O=C1NCCc2[nH]c(-c3ccnc(-c4ccc(CCc5ccc(F)cc5)nc4)c3)cc21 [Example 345, trifluoroacetate]",7.18,–

Structure (SMILES),pIC50,kind of MK-2 inhibition (irreversible)
"CC(=NO)c1ccc(-c2cc(-c3cc4c([nH]3)CCNC4=O)ccn2)cc1 [Example 349, trifluoroacetate]",7.18,–
"C=CC(=O)NCc1cccc(-c2cc(-c3cc4c([nH]3)CCNC4=O)ccn2)c1 [Example 351, hydrochloride]",7.16,–
"O=C(CCCOc1ccc(-c2cc(-c3cc4c([nH]3)CCNC4=O)ccn2)cc1)NCCN1CCOCC1 [Example 357, trifluoroacetate]",7.14,–
"COC(=O)N1CC(c2cc(-c3cc4c([nH]3)CCNC4=O)ccn2)=Cc2ccccc21 [Example 362, trifluoroacetate]",7.13,–
"O=C(O)/C=C\C(=O)NCc1cccc(-c2cc(-c3cc4c([nH]3)CCNC4=O)ccn2)c1 [Example 369, trifluoroacetate]",7.12,–
"O=C(NC1CCCCC1)c1ccc(-c2cc(-c3cc4c([nH]3)CCNC4=O)ccn2)c(F)c1 [Example 391, trifluoroacetate]",7.08,–
"O=C(CCl)Nc1cccc(-c2cc(-c3cc4c([nH]3)CCNC4=O)ccn2)c1 [Example 401, trifluoroacetate]",7.06,–
"O=C(/C=C/c1ccccc1)Nc1ccc(-c2cc(-c3cc4c([nH]3)CCNC4=O)ccn2)cc1 [Example 403, trifluoroacetate]",7.06,–
"O=C1NCCc2[nH]c(-c3ccnc(-c4cccc(CNCc5cccc(Cl)c5)c4)c3)cc21 [Example 408, bis(trifluoroacetate)]",7.05,–
CON=C(C)c1ccc(-c2cc(-c3cc4c([nH]3)CCNC4=O)ccn2)cc1 [Example 415],7.03,–
"C/C=C/C(=O)Nc1cccc(-c2cc(-c3cc4c([nH]3)CCNC4=O)ccn2)c1 [Example 430, trifluoroacetate]",7.00,–
"Nc1cccc(-c2cc(-c3cc4c([nH]3)CCNC4=O)ccn2)c1 [Example 431, trifluoroacetate]",7.00,–
"CCc1ccc(-c2cc(-c3cc4c([nH]3)CCNC4=O)ccn2)cc1 [Example 434, trifluoroacetate]",7.00,–
CN(C)C/C=C/C(=O)NCc1cccc(-c2cc(-c3cc4c([nH]3)CCNC4=O)ccn2)c1 [Example 465],6.93,–
CN(C)S(=O)(=O)c1ccc(-c2cc(-c3cc4c([nH]3)CCNC4=O)ccn2)cc1 [Example 470],6.92,–
NCCCc1ccc(-c2cc(-c3cc4c([nH]3)CCNC4=O)ccn2)cn1 [Example 485],6.88,–
CC(C)=NNc1cc(-c2cc3c([nH]2)CCNC3=O)ccn1 [Example 491],6.88,–
O=C1NCCc2[nH]c(-c3ccnc(/C=C/c4cc5ccccc5o4)c3)cc21 [Example 494],6.87,–
"O=C1NCCc2[nH]c(-c3ccnc(/C=C(/F)c4ccccc4)c3)cc21 [Example 497, trifluoroacetate]",6.87,–
CC1CNC(=O)c2cc(-c3ccnc(-c4ccccc4F)c3)[nH]c21 (stereo not shown) [Example 505],6.84,–
"O=C1NCCc2[nH]c(-c3ccnc(-c4ccc(OCC(O)CN5CCC[C@@H]5CN5CCCC5)cc4)c3)cc21 (stereo partly drawn) [Example 508, 2-[2-(4-{2-hydroxy-3-[(2R)-2-(pyrrolidin-1-ylmethyl)pyrrolidin-1-yl]propoxy}phenyl)pyridin-4-yl]-1,5,6,7-tetrahydro-4H-pyrrolo[3,2-c]pyridin-4-one trifluoroacetate]",6.83,–

# Other lines, results leading:
pIC50,kind of MK-2 inhibition (irreversible),Structure (SMILES)
8.15,–,"O=C1NCCc2[nH]c(-c3cc(-c4cnc5ccccc5c4)ncc3F)cc21 [Example 4, trifluoroacetate]"
8.04,–,O=C1NCCc2[nH]c(-c3ccnc(-c4ccc5cc(O)ccc5c4)c3)cc21 [Example 17]
8.00,–,O=C(O)c1ccc(-c2cc(-c3cc4c([nH]3)CCNC4=O)c(F)cn2)cc1 [Example 28]
7.80,–,"O=C1NCCc2[nH]c(-c3ccnc(/C=C/c4c(F)cccc4F)c3)cc21 [Example 59, trifluoroacetate]"
7.79,–,"O=C1NCCc2[nH]c(-c3ccnc(-c4ccc5c(c4)OC=CO5)c3)cc21 [Example 62, trifluoroacetate]"
7.79,–,"O=C1NCCc2[nH]c(-c3ccnc(-c4ccc(N5CCOCC5)nc4)c3)cc21 [Example 63, trifluoroacetate]"
7.74,–,"O=C1NCCc2[nH]c(-c3ccnc(/C=C/c4cccnc4)c3)cc21 [Example 78, trifluoroacetate]"
7.73,–,"O=C1NCCc2[nH]c(-c3ccnc(-c4cc(F)cc(F)c4)c3)cc21 [Example 80, trifluoroacetate]"
7.72,–,"C=CC(=O)Nc1cccc(-c2cc(-c3cc4c([nH]3)CCNC4=O)ccn2)c1 [Example 82, trifluoroacetate]"
7.71,–,"CC(C)C(=O)Nc1ccc(-c2cc(-c3cc4c([nH]3)CCNC4=O)ccn2)cc1 [Example 88, trifluoroacetate]"
7.70,–,"Nc1ccc(-c2cc(-c3cc4c([nH]3)CCNC4=O)ccn2)cn1 [Example 90, trifluoroacetate]"
7.66,–,"COC(=O)c1ccc(-c2cc(-c3cc4c([nH]3)CCNC4=O)ccn2)cc1 [Example 105, trifluoroacetate]"
7.65,–,"Cc1cncc(-c2cc(-c3cc4c([nH]3)CCNC4=O)ccn2)c1 [Example 111, trifluoroacetate]"
7.63,–,"CC(C)c1cccc(-c2cc(-c3cc4c([nH]3)CCNC4=O)ccn2)c1 [Example 119, trifluoroacetate]"
7.62,–,"O=C(NCC(F)(F)F)c1ccc(-c2cc(-c3cc4c([nH]3)CCNC4=O)ccn2)cc1 [Example 121, trifluoroacetate]"
7.59,–,"CC(=NO)c1cccc(-c2cc(-c3cc4c([nH]3)CCNC4=O)ccn2)c1 [Example 134, bis(trifluoroacetate)]"
7.56,–,"Cc1ccc(-c2cc(-c3cc4c([nH]3)CCNC4=O)ccn2)cc1F [Example 150, trifluoroacetate]"
7.55,–,"O=C1NCCc2[nH]c(-c3ccnc(/C=C/c4ccc(N5CCOCC5)c(F)c4)c3)cc21 [Example 156, trifluoroacetate]"
7.55,–,"CC(=O)c1cccc(-c2cc(-c3cc4c([nH]3)CCNC4=O)c(F)cn2)c1 [Example 159, trifluoroacetate]"
7.55,–,"N#Cc1cccc(-c2cc(-c3cc4c([nH]3)CCNC4=O)ccn2)c1 [Example 160, trifluoroacetate]"
7.54,–,"O=C1NCCc2cc(-c3cc(-c4cc5c([nH]4)CCNC5=O)ccn3)ccc21 [Example 161, trifluoroacetate]"
7.53,–,"O=C1NCCc2[nH]c(-c3ccnc(-c4ccc(C(=O)C5CC5)cc4)c3)cc21 [Example 167, trifluoroacetate]"
7.53,–,"COc1ccc(/C=C/c2cc(-c3cc4c([nH]3)CCNC4=O)ccn2)cc1 [Example 170, trifluoroacetate]"
7.53,–,"COc1cc(/C=C/c2cc(-c3cc4c([nH]3)CCNC4=O)ccn2)cc(OC)c1 [Example 171, trifluoroacetate]"
7.49,–,"O=C1NCCc2[nH]c(-c3ccnc(/C=C/c4cccc(CCN5CCOCC5)c4)c3)cc21 [Example 192, trifluoroacetate]"
